These results are taken from patent US6939890B2, “sPLA2 inhibitors” (Eli Lilly and Company, priority 1999, dated 2005).

Counter-ions that a name gives are not always drawn.

In the first series the target is T1, recombinant human secreted phospholipase A2 (Homo sapiens, UniProt P14555).
T1 sequence (P14555 21-144): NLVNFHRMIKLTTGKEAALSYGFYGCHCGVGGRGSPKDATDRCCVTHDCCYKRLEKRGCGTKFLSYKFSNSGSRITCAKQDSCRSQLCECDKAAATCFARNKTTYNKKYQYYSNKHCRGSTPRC
As to the kind of experiment: chromogenic assay for inhibitors of recombinant human secreted phospholipase A2 (diheptanoyl thio-PC/DTNB, 96 well microtiter plates). The class given is biochemical. To be noted: included in the table for purposes of comparison only. The text has this:
The following chromogenic assay procedure was used to identify and evaluate inhibitors of recombinant human secreted phospholipase A2. The assay described herein has been adapted for high volume screening using 96 well microtiter plates. A general description of this assay method is found in the article, “Analysis of Human Synovial Fluid Phospholipase A2 on Short Chain Phosphatidylcholine-Mixed Micelles: Development of a Spectrophotometric Assay Suitable for a Microtiterplate Reader”, by Laure J. Reynolds, Lori L. Hughes, and Edward A Dennis, Analytical Biochemistry, 204, pp. 190-197, 1992 (the disclosure of which is incorporated herein by reference): […]
A measured volume of racemic dipheptanoyl thio PC supplied in chloroform at a concentration of 100 mg/ml is taken to dryness and redissolved in 10 millimolar […]
• 1. […] Read absorbance of wells at 405 nanometers with an automatic plate reader.
All compounds were tested in triplicate. […] Compounds initially found to be active were reassayed to confirm their activity and, if sufficiently active, IC50 values were determined. […] In all cases, % inhibition measured at 405 nanometers generated by enzyme reactions containing inhibitors relative to the uninhibited control reactions was determined. […] IC50 were determined by plotting log concentration versus inhibition values in the range from 10-90% inhibition.
`CCc1c(C(=O)C(N)=O)c2c(OCC(=O)OC)cccc2n1Cc1ccccc1` [1 (SM), [[3-(2-Amino-1,2-dioxoethyl)-2-ethyl-1-(phenylmethyl)-1H-indol-4-yl]oxy]acetic acid methyl ester]: the “inhibiting sPLA2 (statement in words)” value is “highly active”.

System in a further series: not given
Experiment: not given
Settings: not given
For orientation: melting point means the temperature of the solid-liquid transition. As for `CCc1c(C(=O)C(N)=O)c2c(OCC(=O)N(C)OCc3ccccc3)cccc2n1Cc1ccccc1` [Compound 2Ak, 2-[[3-(Aminooxoacetyl)-2-ethyl-1-(phenylmethyl)-1H-indol-4-yl]oxy]-N-(methyl)-N-(phenylmethyloxy)acetamide], the melting point was in the range of 186.5 to 188.5 °C.
In turn, `CCc1c(CC(N)=O)c2c(OCC(=O)NO)cccc2n1Cc1ccccc1` [Compound 2Ba, 2-[[3-(2-Amino-2-oxoethyl)-2-ethyl-1-(phenylnmethyl)-1H-indol-4-yl]oxy]-N-(hydroxy)acetamide] showed a melting point of 187 to 189 °C.
As to `CCc1c(C(=O)C(N)=O)c2c(OCC(=O)N(O)C(C)C)cccc2n1Cc1ccccc1` (as salt: hydrochloride) [Compound 2Ag, 2-[[3-(Aminooxoacetyl)-2-ethyl-1-(phenylmethyl)-1H-indol-4-yl]oxy]-N-(hydroxy)-N-(2-propyl)acetamide], the melting point was 202 °C (dec.).
On to `CCc1c(C(=O)C(N)=O)c2c(OCC(=O)NOc3ccccc3)cccc2n1Cc1ccccc1` (as salt: hydrochloride) [Compound 2Al, 2-[[3-(Aminooxoacetyl)-2-ethyl-1-(phenylmethyl)-1H-indol-4-yl]oxy]-N-(phenyloxy)acetamide], for which the melting point was 205 °C (dec.).
For the molecule `CCc1c(C(=O)C(N)=O)c2c(OCC(=O)N(C)Oc3ccccc3)cccc2n1Cc1ccccc1` [Compound 2Am, 2-[[3-(Aminooxoacetyl)-2-ethyl-1-(phenylmethyl)-1H-indol-4-yl]oxy]-N-(methyl)-N-(phenyloxy)acetamide], the melting point lay within 146 to 147.5 °C.
Same read-out and setting: the result for `CCc1c(C(=O)C(N)=O)c2c(OCC(=O)NOC)cccc2n1Cc1ccccc1` [Compound 2Ab, 2-[[3-(Aminooxoacetyl)-2-ethyl-1-(phenylmethyl)-1H-indol-4-yl]oxy]-N-(methyloxy)acetamide] reads 228 °C (dec.).
The same measure, in the same setting: in the case of `CCc1c(C(=O)C(N)=O)c2c(OCC(=O)NOC(C)(C)C)cccc2n1Cc1ccccc1` (as salt: hydrochloride) [Compound 2Ah, 2-[[3-(Aminooxoacetyl)-2-ethyl-1-(phenylmethyl)-1H-indol-4-yl]oxy]-N-(tert-butyloxy)acetamide] it was 203 to 205 °C; in that of `CCc1c(C(=O)C(N)=O)c2c(OCC(=O)N(C)OC)cccc2n1Cc1ccccc1` (as salt: hydrochloride) [Compound 2Ac, 2-[[3-(Aminooxoacetyl)-2-ethyl-1-(phenylmethyl)-1H-indol-4-yl]oxy]-N-(methyl)-N-(methyloxy)acetamide], 168 to 170 °C; in that of `CCc1c(C(=O)C(N)=O)c2c(OCC(=O)N(C)O)cccc2n1Cc1ccccc1` (as salt: hydrochloride) [Compound 2Ad, 2-[[3-(Aminooxoacetyl)-2-ethyl-1-(phenylmethyl)-1H-indol-4-yl]oxy]-N-(hydroxy)-N-(methyl)acetamide], 217 °C (dec.).
Still for that read-out and setting: in the case of `CCc1c(C(=O)C(N)=O)c2c(OCC(=O)NOCc3ccccc3)cccc2n1Cc1ccccc1` (as salt: hydrochloride) [Compound 2Aj, 2-[[3-(Aminooxoacetyl)-2-ethyl-1-(phenylmethyl)-1H-indol-4-yl]oxy]-N-(phenylmethyloxy)acetamide] it was 167 to 169 °C; in that of `C=CCONC(=O)COc1cccc2c1c(C(=O)C(N)=O)c(CC)n2Cc1ccccc1` (as salt: hydrochloride) [Compound 2Af, 2-[[3-(Aminooxoacetyl)-2-ethyl-1-(phenylmethyl)-1H-indol-4-yl]oxy]-N-(2-propenyloxy)acetamide], 175 to 177 °C; in that of `CCc1c(C(=O)C(N)=O)c2c(OCC(=O)N(O)C3CCCCC3)cccc2n1Cc1ccccc1` (as salt: hydrochloride) [Compound 2An, 2-[[3-(Aminooxoacetyl)-2-ethyl-1-(phenylmethyl)-1H-indol-4-yl]oxy]-N-(cyclohexyl)-N-(hydroxy)acetamide], 210 °C (dec.).
As to `CCONC(=O)COc1cccc2c1c(C(=O)C(N)=O)c(CC)n2Cc1ccccc1` (as salt: hydrochloride) [Compound 2Ae, 2-[[3-(Aminooxoacetyl)-2-ethyl-1-(phenylmethyl)-1H-indol-4-yl]oxy]-N-(ethyloxy)acetamide], the melting point is 176 to 178 °C.
